Results reported in patent US9675614B2, “PRMT5 inhibitors and uses thereof” (Epizyme, Inc., priority 2012, dated 2017).

Each compound was assayed against PRMT5/MEP50 (Homo sapiens (Human), UniProt O14744) (assay: PRMT5 Biochemical Assay (PRMT5/MEP50 enzyme assay on peptide substrate, 3H-SAM Flashplate)). Details: PRMT5/MEP50 biochemical assay; read-out: Biochemical IC50.
PRMT5/MEP50, sequence (O14744 other isoform, or with tags, fused parts or gaps): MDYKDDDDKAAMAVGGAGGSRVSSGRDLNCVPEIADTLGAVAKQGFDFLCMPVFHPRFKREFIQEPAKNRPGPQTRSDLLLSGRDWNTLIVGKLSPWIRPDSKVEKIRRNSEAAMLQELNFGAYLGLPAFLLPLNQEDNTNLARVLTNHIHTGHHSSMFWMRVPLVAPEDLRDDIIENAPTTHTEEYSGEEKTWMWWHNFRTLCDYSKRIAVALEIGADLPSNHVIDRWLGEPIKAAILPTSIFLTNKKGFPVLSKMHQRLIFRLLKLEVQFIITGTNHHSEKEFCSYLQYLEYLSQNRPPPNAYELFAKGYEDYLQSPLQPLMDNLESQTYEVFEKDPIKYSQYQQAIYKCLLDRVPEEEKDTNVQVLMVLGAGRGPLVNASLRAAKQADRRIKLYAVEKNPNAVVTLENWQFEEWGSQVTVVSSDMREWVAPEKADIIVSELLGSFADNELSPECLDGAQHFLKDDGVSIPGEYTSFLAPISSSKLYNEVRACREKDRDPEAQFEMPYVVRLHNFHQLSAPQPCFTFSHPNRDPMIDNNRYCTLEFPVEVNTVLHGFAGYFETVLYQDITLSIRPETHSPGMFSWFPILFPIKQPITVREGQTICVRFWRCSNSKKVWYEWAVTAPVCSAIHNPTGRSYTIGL
PRMT5/MEP50, sequence (Q9BQA1 other isoform, or with tags, fused parts or gaps partner): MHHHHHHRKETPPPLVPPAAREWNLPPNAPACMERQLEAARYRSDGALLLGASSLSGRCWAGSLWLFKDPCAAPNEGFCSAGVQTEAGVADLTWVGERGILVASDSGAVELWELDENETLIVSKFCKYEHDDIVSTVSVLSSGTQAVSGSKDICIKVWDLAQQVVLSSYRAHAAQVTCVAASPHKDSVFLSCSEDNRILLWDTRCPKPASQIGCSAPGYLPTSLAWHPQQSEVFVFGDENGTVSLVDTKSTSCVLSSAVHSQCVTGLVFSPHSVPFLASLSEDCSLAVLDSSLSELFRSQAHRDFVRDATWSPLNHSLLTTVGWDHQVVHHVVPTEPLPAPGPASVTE
For `CN1CCC(Oc2cccc(C(=O)NCC(O)CN3CCc4ccccc4C3)c2)C1` (stereo not drawn) [Compound 134], the IC50 was under 100 nM.
With `CC(=O)N1CC(Nc2cc(C(=O)NC[C@H](O)CN3CCc4ccccc4C3)ccn2)C1` [Compound 279] the IC50 was under 100 nM.
Work on `O=C(NC[C@H](O)CN1CCc2ccccc2C1)c1cc(NC2CNC2)ncn1` [Compound 280] yielded an IC50 of under 100 nM.
With `CN1CC(Nc2cc(C(=O)NC[C@H](O)CN3CCc4ccccc4C3)ncn2)C1` [Compound 281] the IC50 was under 100 nM.
`O=C(NC[C@H](O)CN1CCc2ccccc2C1)c1cc(NC2CN(CC(F)(F)F)C2)ncn1` [Compound 282] showed an IC50 of under 100 nM.
For `CS(=O)(=O)N1CC(Nc2cc(C(=O)NC[C@H](O)CN3CCc4ccccc4C3)ncn2)C1` [Compound 283], the IC50 was under 100 nM.
`CC(=O)N1CC(Nc2cc(C(=O)NC[C@H](O)CN3CCc4ccccc4C3)ncn2)C1` [Compound 284, (S)-6-((1-acetylazetidin-3-yl)amino)-N-(3-(3,4-dihydroisoquinolin-2(1H)-yl)-2-hydroxypropyl)pyrimidine-4-carboxamide] showed an IC50 of under 100 nM.
With `O=C(NC[C@H](O)CN1CCc2ccccc2C1)c1cc(OC2CCN(CC(F)(F)F)CC2)ncn1` [Compound 285] the IC50 was 101 to 1000 nM.
With `CS(=O)(=O)N1CCC(Oc2cc(C(=O)NC[C@H](O)CN3CCc4ccccc4C3)ncn2)CC1` [Compound 286] the IC50 was under 100 nM.
In the case of `CC(=O)N1CCC(Oc2cc(C(=O)NC[C@H](O)CN3CCc4ccccc4C3)ncn2)CC1` [Compound 287], the IC50 is reported as under 100 nM.
Work on `CN1CCC(Oc2cncc(C(=O)NC[C@H](O)CN3CCc4ccccc4C3)c2)CC1` [Compound 288] yielded an IC50 of under 100 nM.
Compound `O=C(NC[C@H](O)CN1CCc2ccccc2C1)c1cncc(OC2CCN(CC(F)(F)F)CC2)c1` [Compound 289] has an IC50 of 101 to 1000 nM.
`CS(=O)(=O)N1CCC(Oc2cncc(C(=O)NC[C@H](O)CN3CCc4ccccc4C3)c2)CC1` [Compound 290] was tested, and the IC50 was under 100 nM.
Compound `CC(=O)N(C)CCN(C)c1cc(C(=O)NC[C@H](O)CN2CCc3ccccc3C2)ccn1` [Compound 291] has an IC50 of under 100 nM.
With `CN1CCC(CNc2cc(C(=O)NC[C@H](O)CN3CCc4ccccc4C3)ccn2)CC1` [Compound 292] the IC50 was under 100 nM.
In the case of `CC(=O)N1CC[C@@H](Nc2cccc(C(=O)NC[C@H](O)CN3CCc4ccccc4C3)c2)C1` [Compound 293], the IC50 is reported as under 100 nM.
`O=C(NC[C@H](O)CN1CCc2ccccc2C1)c1ccc2[nH]cnc2c1` [Compound 294] showed an IC50 of 101 to 1000 nM.
`O=C(NC[C@H](O)CN1CCc2ccccc2C1)c1cccc2ccccc12` [Compound 295] showed an IC50 of 101 to 1000 nM.
Work on `O=C(NC[C@H](O)CN1CCc2ccccc2C1)c1cc2c(F)cccc2[nH]1` [Compound 296] yielded an IC50 of under 100 nM.
`CS(=O)(=O)N1CCC(Nc2cc(C(=O)NC[C@H](O)CN3CCc4ccccc4C3)ncn2)CC1` [Compound 297] showed an IC50 of under 100 nM.
Work on `O=C(NC[C@H](O)CN1CCc2ccccc2C1)c1cncc(NC2CCOCC2)c1` [Compound 298] yielded an IC50 of under 100 nM.
Compound `O=C(NC[C@H](O)CN1CCc2ccccc2C1)c1cncc(NC2COC2)c1` [Compound 299] has an IC50 of under 100 nM.
Compound `O=C(NC[C@H](O)CN1CCc2ccccc2C1)c1cncc(NC2CCN(CC(F)(F)F)CC2)c1` [Compound 300] has an IC50 of under 100 nM.
For `CS(=O)(=O)N1CCC(Nc2cncc(C(=O)NC[C@H](O)CN3CCc4ccccc4C3)c2)CC1` [Compound 301], the IC50 was under 100 nM.
Compound `CC(=O)N1CCC(Nc2cncc(C(=O)NC[C@H](O)CN3CCc4ccccc4C3)c2)CC1` [Compound 302] has an IC50 of under 100 nM.
For `O=C(NC[C@H](O)CN1CCc2ccccc2C1)c1cncc(NC2CCN(CC(F)(F)F)C2)c1` (stereo partly drawn) [Compound 303], the IC50 was under 100 nM.
Compound `O=C(NC[C@H](O)CN1CCc2ccccc2C1)c1ccc2[nH]nnc2c1` [Compound 305] has an IC50 of 101 to 1000 nM.
With `O=C(NC[C@H](O)CN1CCc2ccccc2C1)c1ccnc(NC2CCOC2)c1` (stereo partly drawn) [Compound 306] the IC50 was under 100 nM.
`Cc1cnc(NC2CCOCC2)cc1C(=O)NC[C@H](O)CN1CCc2ccccc2C1` [Compound 307] showed an IC50 of under 100 nM.
Work on `Cc1cnc(NC2CCOC2)cc1C(=O)NC[C@H](O)CN1CCc2ccccc2C1` (stereo partly drawn) [Compound 308] yielded an IC50 of under 100 nM.
In the case of `Cc1cnc(OC2CCOCC2)cc1C(=O)NC[C@H](O)CN1CCc2ccccc2C1` [Compound 309], the IC50 is reported as 101 to 1000 nM.
`Cc1ncc(NC2CCNC2)cc1C(=O)NC[C@H](O)CN1CCc2ccccc2C1` (stereo partly drawn) [Compound 310] gave an IC50 of 101 to 1000 nM.
Work on `Cn1nc(NC2CCOCC2)cc1C(=O)NCC(O)CN1CCc2ccccc2C1` (stereo not drawn) [Compound 311] yielded an IC50 of under 100 nM.
Compound `Cn1nc(C(=O)NCC(O)CN2CCc3ccccc3C2)cc1NC1CCOCC1` (stereo not drawn) [Compound 312] has an IC50 of 101 to 1000 nM.
`CNCCNc1cc(C(=O)NC[C@H](O)CN2CCc3ccccc3C2)ccn1` [Compound 314] was tested, and the IC50 was under 100 nM.
`CC(=O)N(C)CCNc1cc(C(=O)NC[C@H](O)CN2CCc3ccccc3C2)ccn1` [Compound 315] was tested, and the IC50 was under 100 nM.
For `O=C(NC[C@H](O)CN1CCc2ccccc2C1)c1ccnc(NCCNCC(F)(F)F)c1` [Compound 316], the IC50 was under 100 nM.
For `O=C(NC[C@H](O)CN1CCc2ccccc2C1)c1cnc2ccccc2c1` [Compound 317], the IC50 was under 100 nM.
With `O=C(NC[C@H](O)CN1CCc2ccccc2C1)c1ccc2cc(O)ccc2c1` [Compound 318] the IC50 was under 100 nM.
`O=C(NC[C@H](O)CN1CCc2ccccc2C1)c1nc2cc(Br)ccc2[nH]1` [Compound 319] was tested, and the IC50 was under 100 nM.
In the case of `NCCNc1cc(C(=O)NC[C@H](O)CN2CCc3ccccc3C2)ccn1` [Compound 320], the IC50 is reported as under 100 nM.
`O=C(NC[C@H](O)CN1CCc2ccccc2C1)c1ccc(OC2CCN(CCO)CC2)cc1` [Compound 321] was tested, and the IC50 was under 100 nM.
`CC(C)(C)C(=O)N1CCC(Oc2ccc(C(=O)NC[C@H](O)CN3CCc4ccccc4C3)cc2)CC1` [Compound 322] was tested, and the IC50 was under 100 nM.
`O=C(NC[C@H](O)CN1CCc2ccccc2C1)c1ccnc(OC2CCOCC2)c1` [Compound 323] was tested, and the IC50 was under 100 nM.
Compound `CN(c1cc(C(=O)NC[C@H](O)CN2CCc3ccccc3C2)ccn1)C1CCOCC1` [Compound 324] has an IC50 of under 100 nM.
With `Cn1nccc1Nc1cc(C(=O)NC[C@H](O)CN2CCc3ccccc3C2)ccn1` [Compound 325] the IC50 was under 100 nM.
`CC(C)(C)c1cc(Nc2cc(C(=O)NC[C@H](O)CN3CCc4ccccc4C3)ccn2)n[nH]1` [Compound 326] showed an IC50 of under 100 nM.
`O=C(NC[C@H](O)CN1CCc2ccccc2C1)c1c(O)ccc2ccccc12` [Compound 327] was tested, and the IC50 was 101 to 1000 nM.
`O=C(NC[C@H](O)CN1CCc2ccccc2C1)c1ccc2c(c1O)NCCC2` [Compound 328] was tested, and the IC50 was 1000 to 10000 nM.
In the case of `COCCN1CCC(Oc2ccc(C(=O)NC[C@H](O)CN3CCc4ccccc4C3)cc2)CC1` [Compound 329], the IC50 is reported as under 100 nM.
Compound `O=C(NC[C@H](O)CN1CCc2ccccc2C1)c1ccc(OC2CCN(Cc3ccccc3)CC2)cc1` [Compound 330] has an IC50 of under 100 nM.
Compound `O=C(NC[C@H](O)CN1CCc2ccccc2C1)c1ccc(OC2CCN(Cc3ccncc3)CC2)cc1` [Compound 331] has an IC50 of under 100 nM.
For `COc1cc(C(=O)NC[C@H](O)CN2CCc3ccccc3C2)cc(NC2CCC2)n1` [Compound 332], the IC50 was under 100 nM.
`CN(c1cc(C(=O)NC[C@H](O)CN2CCc3ccccc3C2)ccn1)C1CCC1` [Compound 333] gave an IC50 of under 100 nM.
`O=C(NC[C@H](O)CN1CCc2ccccc2C1)c1ccnc(NC2CCCC2)c1` [Compound 334] was tested, and the IC50 was under 100 nM.
Work on `O=C(NC[C@H](O)CN1CCc2ccccc2C1)c1ccnc(NC2CCCCC2)c1` [Compound 335] yielded an IC50 of under 100 nM.

What follows are compounds tested on symmetric di-methyl arginine in Z-138 cells (assay: Z-138 Methylation Assay (In Cell Western for symmetric di-methyl arginine and DNA content)). Details: read-out: ICW EC50.
Type: cell-based
Description: [formula] Where top and bottom are the normally allowed to float, but may be fixed at 100 or 0 respectively in a 3-parameter fit. The Hill Coefficient normally allowed to float but may also be fixed at 1 in a 3-parameter fit. Y is the % inhibition and X is the compound concentration.
RPMI/Glutamax medium, penicillin-streptomycin, heat inactivated fetal bovine serum, and D-PBS were purchased from Life Technologies, Grand Island, N.Y., USA. Odyssey blocking buffer, 800CW goat anti-rabbit IgG (H+L) antibody, and Licor Odyssey infrared scanner were purchased from Licor Biosciences, Lincoln, Nebr., USA. Symmetric di-methyl arginine antibody was purchased from EMD Millipore, Billerica, Mass., USA. 16% Paraformaldehyde was purchased from Electron Microscopy Sciences, Hatfield, Pa., USA.
Cell Treatment, in Cell Western (ICW) for Detection of Symmetric Di-Methyl Arginine and DNA Content.
Z-138 cells were seeded in assay medium at a concentration of 50,000 cells per mL to a 384-well cell culture plate with 50 μL per well. Compound (100 nL) from 384 well source plates was added directly to 384 well cell plate. Plates were incubated at 37° C., 5% CO2 for 96 hours. […] Plates were incubated at room temperature for 30 minutes then incubated at 37° C., 5% CO2 for 5 hours. After the incubation, 40 μL per well of 8% paraformaldehyde in PBS (16% paraformaldahyde was diluted to 8% in PBS) was added to each plate and incubated for 30 minutes. […] Next 30 μL per well of Odyssey blocking buffer were added to each plate and incubated 1 hour at room temperature. […]
First, the ratio for each well was determined by:
Each plate included fourteen control wells of DMSO only treatment (minimum inhibition) as well as fourteen control wells for maximum inhibition treated with 3 μM of a reference compound (Background wells). The average of the ratio values for each control type was calculated and used to determine the percent inhibition for each test well in the plate. […] Percent inhibition was determined and IC50 curves were generated using triplicate wells per concentration of compound.
`CN1CCC(Oc2cccc(C(=O)NCC(O)CN3CCc4ccccc4C3)c2)C1` (stereo not drawn) [Compound 134] was tested, and the EC50 was 101 to 1000 nM.
